Experimental data taken from patent US6710048B2, “Pyrazine derivatives as modulators of tyrosine kinases” (Ortho-McNeil Pharmaceutical, Inc., priority 2000, dated 2004).

Experiments:
[1] = tested on: HeLa cervical adenocarcinoma; experiment: Cell proliferation assay (14C-thymidine incorporation), HeLa; assay type: cell-based; settings: Homo sapiens, read-out: Inhibition of cell proliferation IC50
Procedure: (§1) The ability of a test compound to inhibit the proliferation of cell growth was determined by measuring incorporation of ^14C-labelled thymidine into newly synthesized DNA within the cells. This method was used on cell lines derived from carcinomas originating from several tissues such as HeLa cervical adenocarcinoma (American Type Culture Collection (ATCC), Virginia, Cat. #CCL-2), A375 malignant melanoma (ATCC CRL-1619), SK-OV-3 ovarian adenocarcinoma (ATCC HTB-77) HCT-116 colon carcinoma (CCL-247) and PC-3 prostate adenocarcinoma (ATCC CRL-1435). The method was also used on primary cells such as HUVEC endothelial cells (ATCC CRL-1730). In this way the effect of a compound on cell growth of cells with many different phenotypes can be determined. Cells were trypsinized and counted and 3000-8000 cells were added to each well of a 96-well CytoStar tissue culture treated scintillating microplate (Amersham #RPNQ0160) in complete medium in a volume of 100 μl. Cells were incubated for 24 hours in complete medium at 37° C. in an atmosphere containing 5% CO2.
(§2) Next, 1 μl of test compound in 100% DMSO was added to the wells of the plate. DMSO only was added to control wells. Cells were incubated for 24 more hours in complete medium at 37° C. in an atmosphere containing 5% CO2. Methyl ^14C-thymidine 56 mCi/mmol (NEN #NEC568 or Amersham #CFA532) was diluted in complete medium and 0.2 μCi/well was added to each well of the CytoStar plate in a volume of 20 μl. The plate was incubated for 24 hours at 37° C. plus 5% CO2 in drug plus ^14C-thymidine. The contents of the plate were discarded into a ^14C radioactive waste container by inverting the plate and the plate was washed twice with 200 μl PBS. 200 μl of PBS is then added to each well. The top of the plate was sealed with a transparent plate sealer and a white plate backing sealer (Packard #6005199) was applied to the bottom of the plate. The degree of Methyl ^14C-thymidine incorporation was quantified on a Packard Top Count.

[2] = tested on: SK-OV-3 ovarian adenocarcinoma; experiment: Cell proliferation assay (14C-thymidine incorporation), SK-OV-3; assay type: cell-based; settings: Homo sapiens, read-out: Inhibition of cell proliferation IC50
Procedure: as §1, §2

[3] = target: T1, EGFR (epidermal growth factor receptor) (Homo sapiens, UniProt P00533); experiment: EGF-R kinase selectivity assay; assay type: biochemical; settings: Table 4 kinase selectivity
T1 construct: is purified from human A431 cell membranes; purchased Sigma E3641; host or cells: A431 cell membranes
T1 sequence (P00533 25-1210): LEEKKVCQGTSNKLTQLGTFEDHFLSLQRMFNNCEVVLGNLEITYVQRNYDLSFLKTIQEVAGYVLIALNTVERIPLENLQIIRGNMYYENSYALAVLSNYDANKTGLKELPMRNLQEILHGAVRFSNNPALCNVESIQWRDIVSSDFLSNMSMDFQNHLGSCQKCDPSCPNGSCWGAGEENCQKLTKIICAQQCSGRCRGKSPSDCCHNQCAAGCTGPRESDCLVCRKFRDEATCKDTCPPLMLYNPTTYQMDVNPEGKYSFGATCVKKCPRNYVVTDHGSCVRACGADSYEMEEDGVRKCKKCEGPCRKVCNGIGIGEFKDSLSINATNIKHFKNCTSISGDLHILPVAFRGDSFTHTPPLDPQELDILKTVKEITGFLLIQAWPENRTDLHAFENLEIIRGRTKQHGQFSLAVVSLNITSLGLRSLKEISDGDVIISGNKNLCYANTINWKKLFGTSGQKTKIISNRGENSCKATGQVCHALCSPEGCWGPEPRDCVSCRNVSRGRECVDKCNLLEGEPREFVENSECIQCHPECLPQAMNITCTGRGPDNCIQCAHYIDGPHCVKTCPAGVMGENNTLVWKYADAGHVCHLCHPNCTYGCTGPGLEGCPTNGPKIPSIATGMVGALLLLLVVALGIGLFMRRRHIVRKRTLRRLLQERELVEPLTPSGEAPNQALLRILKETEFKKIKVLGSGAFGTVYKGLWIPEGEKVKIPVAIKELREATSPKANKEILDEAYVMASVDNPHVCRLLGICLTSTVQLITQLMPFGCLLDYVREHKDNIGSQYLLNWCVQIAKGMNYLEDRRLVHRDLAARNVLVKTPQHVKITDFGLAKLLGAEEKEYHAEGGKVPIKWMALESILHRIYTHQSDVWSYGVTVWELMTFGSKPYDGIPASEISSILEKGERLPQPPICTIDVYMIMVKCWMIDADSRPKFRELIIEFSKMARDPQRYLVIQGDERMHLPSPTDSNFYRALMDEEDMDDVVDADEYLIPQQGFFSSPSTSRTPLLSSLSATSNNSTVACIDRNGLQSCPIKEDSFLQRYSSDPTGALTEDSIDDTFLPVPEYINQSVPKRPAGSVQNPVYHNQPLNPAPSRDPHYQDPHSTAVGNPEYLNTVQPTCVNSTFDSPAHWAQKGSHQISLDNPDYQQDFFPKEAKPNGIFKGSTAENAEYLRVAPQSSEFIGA
Procedure: Assays to test compound inhibition of other kinases were preformed using methods that measure the amount of phosphorylation of a biotinylated peptide substrate. Biotinylated peptide substrates were selected from the literature as appropriate for the enzyme being evaluated. […] Assay conditions vary slightly for each protein kinase, for example, insulin receptor kinase requires 10 mM MnCl2 for activity and Calmodulin-dependent protein kinase requires calmodulin and 2 mM CaCl2. The reaction mixture was dispensed into the wells of a streptavidin coated Flashplate and 1 μl drug stock in 100% DMSO was added to a 100 μl reaction volume resulting in a final concentration of 1% DMSO in the reaction. Enzyme was diluted in 50 mM Tris-HCl pH=8.0, 0.1% BSA and added to each well. The reaction was incubated for one hour at 30° C. in the presence of compound. […] The plate was read on a scintillation counter to determine ^33P-γ-ATP incorporated into the immobilized peptide. […] A maximum and minimum signal for the assay was determined on each plate. The IC50 was calculated from the dose response curve of the percent inhibition of the maximum signal in the assay according to the formula [max signal−background/test compound signal−background (100)=% inhibition] by graphing the percent inhibition against the log concentration of test compound. […]

[4] = tested on: MDA-MB-231; experiment: Cell proliferation assay (14C-thymidine incorporation), MDA-MB-231; assay type: cell-based; settings: Homo sapiens, read-out: Inhibition of cell proliferation IC50
Procedure: as §1, §2

| SMILES | IC50 [1] [µM] | IC50 [2] [µM] | IC50 [3] [µM] | IC50 [4] [µM] |
| --- | --- | --- | --- | --- |
| Clc1cccc(Nc2cncc(-c3cncc(NCCCN4CCCCC4)c3)n2)c1 [Cmd 73] | 2.2 | 3.78 |  |  |
| CN(C)CCCNc1cncc(-c2cncc(Nc3cccc(Cl)c3)n2)c1 [Cmd 35] |  |  | 20.7 |  |
| CN(C)CCNc1cncc(-c2cncc(Nc3cccc(Cl)c3)n2)c1 [Cmd 33, N′-[5-[6-[(3-chlorophenyl)amino]pyrazinyl]-3-pyridinyl]-N^2,N^2-dimethyl-1,2-ethanediamine] | 2.23 | 21.5 |  | 12.7 |
| O=C(NCCCO)c1cncc(-c2cncc(Nc3cccc(Cl)c3)n2)c1 [Cmd 39] |  |  | 6.06 |  |
